Laboratory results: ChEMBL document CHEMBL2434920, “Synthesis, characterization and in vitro biological evaluation of some novel 1,3,5-triazine-Schiff base conjugates as potential antimycobacterial agents” (Bioorg Med Chem Lett, 2013)
Values after ≈ are worked out from the molar mass of the structure shown.

Columns and labels:
[1] = system: Mycobacterium tuberculosis; assay: Antimycobacterial activity against Mycobacterium tuberculosis H37Rv assessed as growth inhibition after 5 days by microplate Alamar Blue assay; format: functional; conditions: 120 h
Vero = assay: Cytotoxicity against African green monkey Vero cells assessed as cell viability after 72 hrs by MTT assay; format: cell-based; conditions: Chlorocebus sabaeus

Compound	MIC [1]	IC50 (Vero)
COc1nc(C)nc(/N=C(\C)c2ccc(C)cc2)n1	12.5 µg/mL (≈ 48.8 µM)	> 50 µg/mL
NC(=O)c1cnccn1 [PYRAZINAMIDE]	3.12 µg/mL (≈ 25.4 µM)	> 50 µg/mL
COc1nc(C)nc(/N=C(\C)c2cccc([N+](=O)[O-])c2)n1	25 µg/mL (≈ 87 µM)	> 50 µg/mL
COc1nc(C)nc(/N=C(\C)c2cccnc2)n1	50 µg/mL (≈ 206 µM)	
COc1nc(C)nc(/N=C/c2ccc(Br)cc2)n1	25 µg/mL (≈ 81.4 µM)	> 50 µg/mL
C=CCOc1ccc(/C=N/c2nc(C)nc(OC)n2)cc1	25 µg/mL (≈ 87.9 µM)	> 50 µg/mL
CC[C@@H](CO)NCCN[C@@H](CC)CO [ETHAMBUTOL]	3.12 µg/mL (≈ 15.3 µM)	> 50 µg/mL
COc1nc(C)nc(/N=C(\C)c2ccc3ccccc3c2)n1	50 µg/mL (≈ 171 µM)	
COc1nc(C)nc(/N=C/c2c3ccccc3cc3ccccc23)n1	50 µg/mL (≈ 152 µM)	
COc1nc(C)nc(/N=C(\C)c2ccc([N+](=O)[O-])cc2)n1	12.5 µg/mL (≈ 43.5 µM)	> 50 µg/mL
COc1nc(C)nc(/N=C(\C)c2cc(C)ccc2O)n1	50 µg/mL (≈ 184 µM)	
COc1nc(C)nc(/N=C(\C)c2cccs2)n1	25 µg/mL (≈ 101 µM)	> 50 µg/mL
COc1nc(C)nc(/N=C(\C)c2cccc(C)c2O)n1	50 µg/mL (≈ 184 µM)	
COc1nc(C)nc(/N=C/c2ccc(Cl)cc2)n1	12.5 µg/mL (≈ 47.6 µM)	> 50 µg/mL
COc1nc(C)nc(/N=C/c2ccc(C)cc2)n1	25 µg/mL (≈ 103 µM)	> 50 µg/mL
COc1nc(C)nc(/N=C(\C)c2ccccc2)n1	50 µg/mL (≈ 206 µM)	
COc1nc(C)nc(/N=C/c2ccccc2)n1	50 µg/mL (≈ 219 µM)	
COc1nc(C)nc(/N=C/c2ccc(Cl)cc2Cl)n1	12.5 µg/mL (≈ 42.1 µM)	> 50 µg/mL

Compound	MIC [1]	IC50 (Vero)
COc1nc(C)nc(/N=C/c2cccc([N+](=O)[O-])c2)n1	50 µg/mL (≈ 183 µM)	
COc1nc(C)nc(/N=C/c2c[nH]c3ccccc23)n1	50 µg/mL (≈ 187 µM)	
COc1nc(C)nc(/N=C/c2cccnc2)n1	50 µg/mL (≈ 218 µM)	
COc1nc(C)nc(/N=C/c2cccc(Br)c2)n1	12.5 µg/mL (≈ 40.7 µM)	> 50 µg/mL
COc1nc(C)nc(/N=C(\C)c2ccc(O)cc2)n1	25 µg/mL (≈ 96.8 µM)	> 50 µg/mL
COc1nc(C)nc(/N=C/c2ccc(N(C)C)cc2)n1	25 µg/mL (≈ 92.1 µM)	> 50 µg/mL
CN[C@@H]1[C@H](O[C@H]2[C@H](O[C@H]3[C@H](O)[C@@H](O)[C@H](N=C(N)N)[C@@H](O)[C@@H]3N=C(N)N)O[C@@H](C)[C@]2(O)C=O)O[C@@H](CO)[C@H](O)[C@H]1O [STREPTOMYCIN]	6.25 µg/mL (≈ 10.7 µM)	> 50 µg/mL
COc1nc(C)nc(/N=C/c2cc(Cl)cc(Br)c2O)n1	6.25 µg/mL (≈ 17.5 µM)	> 50 µg/mL
COc1ccc(/C(C)=N/c2nc(C)nc(OC)n2)cc1	50 µg/mL (≈ 184 µM)	
CCOc1cc(/C=N/c2nc(C)nc(OC)n2)ccc1O	25 µg/mL (≈ 86.7 µM)	> 50 µg/mL
COc1nc(C)nc(/N=C(\C)c2cc(O)ccc2O)n1	6.25 µg/mL (≈ 22.8 µM)	> 50 µg/mL
COc1nc(C)nc(/N=C(\C)c2ccccc2O)n1	25 µg/mL (≈ 96.8 µM)	> 50 µg/mL
COc1nc(C)nc(/N=C(\C)c2ccc3c(c2)Cc2ccccc2-3)n1	50 µg/mL (≈ 151 µM)	
COc1nc(C)nc(/N=C/c2ccc[nH]2)n1	25 µg/mL (≈ 115 µM)	> 50 µg/mL
COc1nc(C)nc(/N=C/c2cc(OC)c(OC)c(OC)c2)n1	3.12 µg/mL (≈ 9.82 µM)	> 50 µg/mL
COc1cccc(/C(C)=N/c2nc(C)nc(OC)n2)c1	12.5 µg/mL (≈ 45.9 µM)	> 50 µg/mL
COc1nc(C)nc(/N=C(\C)c2ccc(O)cc2O)n1	25 µg/mL (≈ 91.1 µM)	> 50 µg/mL
